# Laboratory results reported in the OPERA property sets (Mansouri et al. 2018).
# Details: not given
Structure (SMILES),boiling point,melting point,log10 Henry constant (atm·m³/mol),log10 Koa,log10 vapour pressure (mmHg),ready biodegradability,log10 Koc (L/kg),log10 biodegradation half-life (days)
CC/C=C(\C)C(=O)O,214 °C,24.4 °C,,,,,,
Clc1ccc(-c2ccccc2)cc1,293 °C,78.8 °C,-3.24,6.8,-1.98,readily biodegradable,,
OCCC1CCNCC1,228 °C,,,,,,,
Cl.Cl.NCCc1c[nH]cn1,,250 °C,,,,,,
CCCCCN,104 °C,-55 °C,-4.61,,1.48,readily biodegradable,,
C=C[C@H]1CNCC[C@H]1CCC(=O)c1ccnc2ccc(OC)cc12,,60 °C,,,,,,
CCC(C)(CC)C(C)(C)C,170 °C,-42.5 °C,,,,,,
CC(=O)OC/C=C(\C)CCC=C(C)C,238 °C,,,,-1.48,,,
CC(C)c1ccc(N)cc1,225 °C,,,,-1.08,not readily biodegradable,,
CC(=O)C(=O)c1ccccc1,222 °C,,,,,,,
CC(C)N1C(=O)c2ccccc2[N]([Na])S1(=O)=O,,,,,,,1.54,
NS(=O)(=O)c1cc2c(s1)SCCC2=O,,222 °C,,,,,,
COC(=O)CCCCCCCCCCC(=O)OC,,31.9 °C,,,,,,
CC(C)(C)c1cccc2ccccc12,279 °C,-11.3 °C,,,,,,
CCCC=O,,-99 °C,-3.94,3.39,2.05,readily biodegradable,,
CON(C)C(=O)Nc1ccc(Br)cc1,,95 °C,,,-5.52,,2.1,
CCC(Br)(CC)C(=O)NC(=O)NC(C)=O,,109 °C,,,,,,
CCOOCC,65 °C,-70 °C,,,,,,
CNO,,87.5 °C,,,0.222,,,
Clc1cc(Cl)c2nsnc2c1Cl,,122 °C,,,,,,
Cc1cccc2cc3c(ccc4ccccc43)cc12,,156 °C,,,,,,
CCN(CC)C(=O)SCc1ccc(Cl)cc1,,3.3 °C,,,-4.66,,3.27,
CCS(=O)(=O)c1cccnc1S(=O)(=O)NC(=O)Nc1nc(OC)cc(OC)n1,,177 °C,,,,,1.71,
CCSCCSP(=O)(OC)OC,,,,,-3.52,,1.49,
Fc1ccc(-c2ccc(F)cc2)cc1,254 °C,94.5 °C,,,,,,

Structure (SMILES),boiling point,melting point,log10 Henry constant (atm·m³/mol),log10 Koa,log10 vapour pressure (mmHg),ready biodegradability,log10 Koc (L/kg),log10 biodegradation half-life (days)
CCCCCC(C)(C)C,133 °C,-113 °C,,,1.03,,,0.778
SCCCCCCCCS,270 °C,,,,,,,
CCCCC(C)Br (centres undefined),144 °C,,,,0.86,,,
NS(=O)(=O)C(F)(F)C(F)(F)C(F)(F)C(F)(F)C(F)(F)C(F)(F)C(F)(F)C(F)(F)F,,,,,-0.606,,,
Oc1ccc([C@H]2COc3cc(O)ccc3C2)cc1,,190 °C,,,,,,
CCNc1ccccc1,203 °C,-63.5 °C,-5.01,,-0.69,not readily biodegradable,,
OCC(Cc1ccccc1)c1ccccc1 (centres undefined),310 °C,51 °C,,,,,,
CC(Cl)(Cl)C(=O)O,188 °C,-5 °C,,,-0.821,,0.4,
C#CCCCCCCCC#C,,-17 °C,,,,,,
CC(=O)Nc1cccc(Br)c1,,,,,,,2.01,
CN1C2CCCC1CC(=O)C2,246 °C,54 °C,,,,,,
CC[C@H](CC[C@@H](C)[C@H]1CC[C@H]2C3=CC=C4C[C@@H](O)CC[C@]4(C)[C@H]3CC[C@]12C)C(C)C,,144 °C,,,,,,
CC1CC(=O)CC(C)(C)C1 (centres undefined),189 °C,,,,,not readily biodegradable,,
C=C(C)C(=O)OCCCC,160 °C,-75 °C,,,0.326,readily biodegradable,,
NC(=O)c1ccccc1Br,,160 °C,,,,,,
CCCCCCCCCCCC[C@H](C)O,284 °C,34 °C,,,,,,
c1ccc2cc(Nc3ccc4ccccc4c3)ccc2c1,471 °C,172 °C,,,,,,
Cn1cc(-c2ccccc2)c(=O)c(-c2cccc(C(F)(F)F)c2)c1,,154 °C,,,-7.01,not readily biodegradable,2.85,
Clc1cc(Cl)c2c(oc3ccc(Cl)c(Cl)c32)c1Cl,,210 °C,,,,,,
CC(C)(C)c1cc([N+](=O)[O-])cc([N+](=O)[O-])c1O,,126 °C,,,,,,
CC(C)[C@@H](C)CC[C@@H](C)[C@H]1CC[C@H]2C3=CC[C@H]4C[C@@H](O)CC[C@]4(C)[C@H]3CC[C@]12C,,146 °C,,,,,,
COC(=O)CCc1ccccc1,238 °C,,,,,,,
CC[C@H](Br)C(=O)O,,-4 °C,,,,,,
O=C(O)c1ccc(O)c(C(=O)O)c1,,310 °C,,,,,,
CC(Oc1ccc(Oc2ccc(Cl)cc2Cl)cc1)C(=O)O (centres undefined),,120 °C,,,,,,

Structure (SMILES),boiling point,melting point,log10 Henry constant (atm·m³/mol),log10 Koa,log10 vapour pressure (mmHg),ready biodegradability,log10 Koc (L/kg),log10 biodegradation half-life (days)
Cc1ccn2nc(S(=O)(=O)Nc3c(F)cccc3F)nc2n1,,252 °C,,,-11.6,,1.45,
c1cc(N(CC2CO2)CC2CO2)ccc1Cc1ccc(N(CC2CO2)CC2CO2)cc1 (centres undefined),,,,,,not readily biodegradable,,
CCCCOc1ccc(C)cc1,230 °C,,,,,,,
C/C=C/CCC,66.5 °C,-98 °C,,,,,,
CC(=O)N(O)CCCCCNC(=O)CCC(=O)N(O)CCCCCNC(=O)CCC(=O)N(O)CCCCCN,,140 °C,,,,,,
N#C[S-].[Na+],,287 °C,,,,,,
CCCSP(=O)(OCC)Oc1ccc(Br)cc1Cl (centres undefined),,,,,-6.05,,3.03,
C#CCCCCCCC,151 °C,-50 °C,,,0.797,,,
O=C(O)CC1CCCCC1,245 °C,33 °C,,,,,,
O=C1c2cccc(O)c2C(=O)c2c(O)cc(CO)cc21,,224 °C,,,,,,
CCCCCCCCC(Br)C(=O)O (centres undefined),,4 °C,,,,,,
FC(F)(F)c1ccccc1Br,168 °C,,,,,,,
O=[N+]([O-])c1ccc(N=Nc2ccc(O)cc2)cc1,,,,,-9.52,,,
CC1CCCCC1O (centres undefined),164 °C,,-5.12,,,,,
C=C(C)COC,68 °C,,,,,,,
Cc1cccc2cc[nH]c12,266 °C,85 °C,,,,,,
O=C(O)/C=C/CCl,,83 °C,,,,,,
Clc1cccc(-c2c(Cl)c(Cl)cc(Cl)c2Cl)c1Cl,,,-4.31,,-5.96,,,
O=C1NC(=O)c2c1cccc2[N+](=O)[O-],,214 °C,,,,,,
CCCCOC(=O)CC,147 °C,-89 °C,,,0.645,,,
Clc1cnc(Cl)c(Cl)c1,219 °C,49 °C,,,,not readily biodegradable,,
COC(=O)c1ccc2cc(C(=O)OC)ccc2c1,,,,,,not readily biodegradable,,
O=S(=O)(Cl)c1ccc(Br)cc1,,76 °C,,,,,,
C(=Nc1ccccc1)c1ccccc1,310 °C,54 °C,,,,,,
CCON=O,18 °C,,,,,,,

Structure (SMILES),boiling point,melting point,log10 Henry constant (atm·m³/mol),log10 Koa,log10 vapour pressure (mmHg),ready biodegradability,log10 Koc (L/kg),log10 biodegradation half-life (days)
c1ccc2c(c1)COC2,192 °C,,,,,,,
CC(C)(CC(=O)O)CC(=O)O,,104 °C,,,,,,
Nc1cccc(Cl)c1C(=O)O,,159 °C,,,,,,
COC=Cc1ccccc1,212 °C,,,,,,,
CCCSP(=O)(OCC)SCCC,,-13 °C,,,-3.42,,1.85,
Nc1nc2ccccc2[nH]1,,230 °C,,,,,,
Cc1ccc(Cl)c(OCC(O)CNC(C)(C)C)c1 (centres undefined),,221 °C,,,,,,
CCCCOC(=O)CCCCCCCCC(=O)OCCCC,344 °C,-10 °C,,,-5.33,,,
C[C@]12CCC(=O)C=C1C=C[C@@H]1[C@@H]2CC[C@@]2(C)[C@H]1CC[C@@]21CCC(=O)O1,,150 °C,,,,,,
O=C(O)c1c(Br)c(O)c(O)c(O)c1Br,,150 °C,,,,,,
Cc1ccc(S(=O)(=O)Nc2ccccc2C)cc1,,110 °C,,,,,,
O=[N+]([O-])c1ccc(F)cc1O,,36 °C,-4.71,,-1.64,,,
CCOC(=O)C1(S(=O)(=O)c2ccc(C)cc2)CCC1,,53.5 °C,,,,,,
CCN(CC)CCOC(=O)[C@@H]1N2C(=O)[C@@H](NC(=O)Cc3ccccc3)[C@H]2SC1(C)C.I,,178 °C,,,,,,
CCCCCC(=O)CCC,188 °C,,,,,,,
CCC(N)C(O)c1ccccc1 (centres undefined),,79.5 °C,,,,,,
CCCCCCCCCCCCCCCCCCOCC(O)CO (centres undefined),,70.5 °C,,,,,,
Cc1cc(C)c(O)cc1O,276 °C,126 °C,,,,,,
Ic1cn[nH]c1,,109 °C,,,,,,
O[C@@H]1C[C@H]2CC[C@@H]1C2,176 °C,133 °C,,,,,,
CCC(C)c1cc([N+](=O)[O-])cc([N+](=O)[O-])c1OC(=O)C=C(C)C (centres undefined),,70 °C,,,-6.5,,,
Cn1cnc2c1c(=O)[nH]c(=O)n2C,,357 °C,,,,,,
CC(C)CC(=O)OCc1ccccc1,245 °C,,,,,,,
c1ccc(Cn2cccc2)cc1,247 °C,15 °C,,,,,,
Cc1cccc2[nH]ccc12,267 °C,5 °C,,,,,,

Structure (SMILES),boiling point,melting point,log10 Henry constant (atm·m³/mol),log10 Koa,log10 vapour pressure (mmHg),ready biodegradability,log10 Koc (L/kg),log10 biodegradation half-life (days)
CCC(COC(=O)c1cc(OC)c(OC)c(OC)c1)(c1ccccc1)N(C)C (centres undefined),,79 °C,,,,,,
C[Si](C)(C)CCCCl,151 °C,,,,,,,
CCC(=O)c1cc(O)ccc1O,,96.5 °C,,,,,,
O=C(c1ccc(O)cc1O)c1ccc(O)cc1O,,202 °C,,,,,,
CCC(CC)C(C)(C)CC,163 °C,,,,,,,
COc1cc2c(cc1OC)[C@@]13CCN4CC5=CCO[C@H]6CC(=O)N2[C@H]1[C@H]6[C@H]5C[C@H]43,,178 °C,,,,,,
CC1=CC(=O)CC(C)(C)C1,215 °C,-8.1 °C,,,-0.358,readily biodegradable,1.4,
Cc1c(F)c(F)c(C(=O)O)c(F)c1F,,174 °C,,,,,,
O=C(OC[C@H]1O[C@@H](O)[C@H](O)[C@@H](O)[C@@H]1O)c1ccccc1,,121 °C,,,,,,
COC(=O)[C@@H]1[C@H]2C[C@H]3c4[nH]c5ccccc5c4CCN3C[C@@H]2CC[C@@H]1O,,251 °C,,,,,,
CCOC(Cl)CCl (centres undefined),145 °C,,,,,,,
Cc1c[nH]c(C)c1,168 °C,,,,,,,
CON,49.5 °C,,,,2.46,,,
FCCC(F)(F)F,29.4 °C,,,,,,,
NC(N)=S,,182 °C,,,-2.55,,0.85,
CCC(=O)F,44 °C,,,,,,,
CCCCOC(=O)c1ccccc1C(=O)OC1CCCCC1,,,,,-5.32,,,
CNC(=O)Nc1ccc(Cl)c(Cl)c1,,,,,,,2.46,
CCCC=CC(C)C,112 °C,-108 °C,,,,,,
CCCC(O)CCC,156 °C,-41.2 °C,,,-0.0048,,,
Ic1cc(I)c(I)cc1I,,254 °C,,,,,,
CCCCCCOCC,143 °C,,,,,,,
Cc1cncc(C)n1,156 °C,47.5 °C,,,,,,
NS(=O)(=O)c1ccc([N+](=O)[O-])cc1,,179 °C,,,,,,

# Same assay, conditions: fish
Structure (SMILES),log10 BCF,log10 biotransformation half-life (days)
Brc1cc(Br)c(Oc2c(Br)cc(Br)c(Br)c2Br)c(Br)c1Br,5.3,
CCN(CC)C(=O)SCc1ccc(Cl)cc1,2.23,0.66
CCNc1ccccc1,1.11,-0.65
CC1=CC(=O)CC(C)(C)C1,0.3,-1.29
NC(N)=S,0.3,
